# Laboratory results as given in ChEMBL document CHEMBL1136525, “6,7-dihydroxyisoquinoline-3-carboxylic acids are potent inhibitors on the binding of insulin-like growth factor (IGF) to IGF-binding proteins: optimization of the 1-position benzoyl side chain” (Bioorg Med Chem Lett, 2003).
# Biological target: Insulin-like growth factor-binding protein 3 (Homo sapiens, UniProt P17936)
# Assay: Ability to displace Insulin-Like Growth Factor (IGF-I) from its binding to human insulin-like growth factor binding protein 3 (hIGFBP-3)
# Insulin-like growth factor-binding protein 3, sequence (P17936 whole entry): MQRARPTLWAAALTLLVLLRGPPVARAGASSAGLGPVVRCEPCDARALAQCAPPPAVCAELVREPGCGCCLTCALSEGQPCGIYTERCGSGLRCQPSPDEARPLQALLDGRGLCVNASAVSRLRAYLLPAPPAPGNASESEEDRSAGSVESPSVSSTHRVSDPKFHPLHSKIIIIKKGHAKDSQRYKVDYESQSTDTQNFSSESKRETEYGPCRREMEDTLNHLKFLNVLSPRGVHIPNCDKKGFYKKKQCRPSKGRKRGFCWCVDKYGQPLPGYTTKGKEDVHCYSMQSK
row,Structure (SMILES),Ki [nM]
1,O=C(O)c1cc2cc(O)c(O)cc2c(C(=O)c2ccc(Oc3ccc(C(F)(F)F)cc3)c(F)c2)n1,32
2,Cc1cc(C)c(C(O)c2nc(C(=O)O)cc3cc(O)c(O)cc23)c(C)c1 (configuration not stated),11
3,CS(=O)(=O)Nc1ccc(C(=O)c2nc(C(=O)O)cc3cc(O)c(O)cc23)cc1,110
4,O=C(O)c1cc2cc(O)c(O)cc2c(Cc2ccc3c(c2)OCO3)n1,72
5,Cc1ccc(Oc2ccc(C(=O)c3nc(C(=O)O)cc4cc(O)c(O)cc34)cc2F)cc1,9.4
6,O=C(O)c1cc2cc(O)c(O)cc2c(C(=O)c2ccc(Oc3cc(Cl)cc(Cl)c3)c(F)c2)n1,9
7,O=C(O)c1cc2cc(O)c(O)cc2c(C(=O)c2ccc(Oc3ccc(Cl)cc3)c(F)c2)n1,20
8,O=C(O)c1cc2cc(O)c(O)cc2c(C(=O)c2cccc(F)c2)n1,110
9,O=C(O)c1cc2cc(O)c(O)cc2c(C(=O)c2ccc(Oc3ccc(Cl)c(Cl)c3)c(F)c2)n1,12
10,Nc1ccc(C(=O)c2nc(C(=O)O)cc3cc(O)c(O)cc23)cc1,130
11,CCCCC(CC)CNc1ccc(C(=O)c2nc(C(=O)O)cc3cc(O)c(O)cc23)cc1F (configuration not stated),62
12,O=C(O)c1cc2cc(O)c(O)cc2c(C(O)c2ccccc2Cl)n1 (configuration not stated),25
13,O=C(O)c1cc2cc(O)c(O)cc2c(C(=O)c2ccc(Sc3ccc(Cl)cc3)c(F)c2)n1,31
14,Nc1cc2cc(C(=O)O)nc(C(=O)c3ccc4c(c3)OCO4)c2cc1O,850
15,O=C(O)c1cc2cc(O)c(O)cc2c(C(=O)c2ccc(Oc3cccc(Cl)c3)c(F)c2)n1,11
16,O=C(O)c1cc2cc(O)c(O)cc2c(C(=O)c2ccccc2Cl)n1,110
17,Nc1cc2cc(C(=O)O)nc(C(=O)c3ccc(O)c(O)c3)c2cc1O,60
18,Cc1cc(C)c(C(=O)c2nc(C(=O)O)cc3cc(O)c(O)cc23)c(C)c1,100
19,O=C(O)c1cc2cc(O)c(O)cc2c(C(=O)c2ccc([N+](=O)[O-])cc2)n1,32
20,O=C(O)c1cc2cc(O)c(O)cc2c(C(=O)c2ccc(F)c(F)c2)n1,51
21,O=C(O)c1cc2cc(O)c(O)cc2c(C(O)c2ccc(Oc3ccccc3)cc2)n1 (configuration not stated),32
22,O=C(O)c1cc2cc(O)c(O)cc2c(C(=O)c2ccc(Cl)c(Cl)c2)n1,29
23,O=C(O)c1cc2cc(O)c(O)cc2c(C(O)c2ccc(C(F)(F)F)cc2)n1 (configuration not stated),18
24,O=C(O)c1cc2cc(O)c(O)cc2c(C(O)c2cccc(F)c2)n1 (configuration not stated),24
25,CS(=O)(=O)Nc1cc2cc(C(=O)O)nc(C(=O)c3ccc4c(c3)OCO4)c2cc1O,> 10000
26,O=C(O)c1cc2cc(O)c(O)cc2c(C(=O)c2ccc(Oc3ccc(-c4ccccc4)cc3)c(F)c2)n1,32
27,O=C(O)c1cc2cc(O)c(O)cc2c(C(=O)c2ccc(C(F)(F)F)cc2)n1,38
